The target of the assay is T1, human liver GK (Homo sapiens, UniProt P35557).
T1 construct: GST (glutathione S-transferase) (N); made in house; host or cells: E. coli
T1 sequence (P35557 1-466 isoform P35557-2): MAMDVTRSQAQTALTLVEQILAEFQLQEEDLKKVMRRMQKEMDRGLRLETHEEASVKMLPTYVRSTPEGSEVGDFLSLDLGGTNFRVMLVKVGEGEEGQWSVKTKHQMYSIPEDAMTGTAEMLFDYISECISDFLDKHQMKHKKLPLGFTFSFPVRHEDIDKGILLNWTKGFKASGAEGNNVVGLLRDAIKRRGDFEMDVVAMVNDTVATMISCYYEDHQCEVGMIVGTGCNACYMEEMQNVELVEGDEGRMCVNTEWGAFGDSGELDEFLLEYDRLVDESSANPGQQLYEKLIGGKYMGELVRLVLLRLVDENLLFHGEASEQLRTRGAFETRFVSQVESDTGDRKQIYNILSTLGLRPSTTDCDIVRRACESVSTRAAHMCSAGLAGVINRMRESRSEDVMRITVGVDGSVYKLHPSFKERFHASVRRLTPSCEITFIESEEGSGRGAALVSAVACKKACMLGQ
The assay is described as follows: GK activation test. The format is biochemical. The conditions noted are these: test compound concentration needed to activate 50% of maximum activation ability; 4 mM 14C-labeled glucose, 2 mM ATP, room temperature, 20 minutes. Put shortly:
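GST-tagged human liver GK from E. coli (0.24 μg/well) with 4 mM 14C-glucose, 2 mM ATP in Hepes-KOH pH 7.1, KCl, MgCl2, DTT, 1% DMSO, 20 min room temperature. Labeled glucose 6-phosphate captured on anion resin, eluted and counted. EC50 = concentration giving half of maximal activation.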

One may read the EC50 as the concentration that produces a half-maximal response. Read a low EC50 as higher potency in that assay. Consider `CSc1ccc(/C(=C\C2CCCC2)c2ccc(C)c(=O)[nH]2)cc1Cl` [Example 1-18, 6-{(E)-1-[3-Chloro-4-(methylsulfanyl)phenyl]-2-cyclopentylethenyl}-3-methylpyridin-2(1H)-one], for which the EC50 lay within 10 to 500 nM.

Turning to `Cc1ccc(/C(=C/C2CCCC2)c2ccc(S(C)(=O)=O)c(Cl)c2)[nH]c1=O` [Example 1-19, 6-{(E)-1-[3-Chloro-4-(methylsulfonyl)phenyl]-2-cyclopentylethenyl}-3-methylpyridin-2(1H)-one], the EC50 was 10 to 500 nM.

Take `CCc1ccc(/C(=C/C2CCCC2)c2ccc(SC)c(Cl)c2)[nH]c1=O` [Example 1-20, 6-{(E)-1-[3-Chloro-4-(methylsulfanyl)phenyl]-2-cyclopentylethenyl}-3-ethylpyridin-2(1H)-one]: the EC50 was 10 to 500 nM.

On to `CCc1ccc(/C(=C/C2CCCC2)c2ccc(S(C)(=O)=O)c(Cl)c2)[nH]c1=O` [Example 1-21, 6-{(E)-1-[3-Chloro-4-(methylsulfonyl)phenyl]-2-cyclopentylethenyl}-3-ethylpyridin-2(1H)-one], for which the EC50 is 10 to 500 nM.

For the compound `Cc1ccc(/C(=C/C2CCCC2)c2ccc(SCCCO)c(Cl)c2)[nH]c1=O` [Example 1-22, 6-[(E)-1-{3-Chloro-4-[(3-hydroxypropyl)sulfanyl]phenyl}-2-cyclopentylethenyl]-3-methylpyridin-2(1H)-one], the EC50 fell in the range of 10 to 500 nM.

In turn, `Cc1ccc(/C(=C/C2CCCC2)c2ccc(S(=O)(=O)CCCO)c(Cl)c2)[nH]c1=O` [Example 1-23, 6-[(E)-1-{3-Chloro-4-[(3-hydroxypropyl)sulfonyl]phenyl}-2-cyclopentylethenyl]-3-methylpyridin-2(1H)-one] registered an EC50 of 10 to 500 nM.

On to `CCN(CC)CCCSc1ccc(/C(=C\C2CCCC2)c2ccc(C)c(=O)[nH]2)cc1Cl` [Example 1-24, 6-[(E)-1-(3-Chloro-4-{[3-(diethylamino)propyl]sulfanyl}phenyl)-2-cyclopentylethenyl]-3-methylpyridin-2(1H)-one], for which the EC50 was 10 to 500 nM.

Compound `CCN(CC)CCCS(=O)(=O)c1ccc(/C(=C\C2CCCC2)c2ccc(C)c(=O)[nH]2)cc1Cl` [Example 1-25, 6-[(E)-1-(3-Chloro-4-{[3-(diethylamino)propyl]sulfonyl}phenyl)-2-cyclopentylethenyl]-3-methylpyridin-2(1H)-one] came in with an EC50 of 500 to 3000 nM.

On to `CCc1ccc(/C(=C/C2CCCC2)c2ccc(SCCCN(CC)CC)c(Cl)c2)[nH]c1=O` [Example 1-26, 6-[(E)-1-(3-Chloro-4-{[3-(diethylamino)propyl]sulfanyl}phenyl)-2-cyclopentylethenyl]-3-ethylpyridin-2(1H)-one], for which the EC50 lay within 10 to 500 nM.

Consider `CCc1ccc(/C(=C/C2CCCC2)c2ccc(S(=O)(=O)CCCN(CC)CC)c(Cl)c2)[nH]c1=O` [Example 1-27, 6-[(E)-1-(3-Chloro-4-{[3-(diethylamino)propyl]sulfonyl}phenyl)-2-cyclopentylethenyl]-3-ethylpyridin-2(1H)-one], for which the EC50 was 10 to 500 nM.

Compound `CS(=O)(=O)c1ccc(/C(=C\C2CCCC2)c2ccc(C(F)(F)F)c(=O)[nH]2)cc1` [Example 1-28, 6-{(E)-2-Cyclopentyl-1-[4-(methylsulfonyl)phenyl]ethenyl}-3-(trifluoromethyl)pyridin-2(1H)-one] showed an EC50 of 500 to 3000 nM.

Consider `O=c1[nH]c(/C(=C/C2CCCC2)c2ccc(SC3CC3)cc2)ccc1-c1ccccc1` [Example 1-29, 6-{(E)-2-Cyclopentyl-1-[4-(cyclopropylsulfanyl)phenyl]ethenyl}-3-phenylpyridin-2(1H)-one], for which the EC50 is 10 to 500 nM.

`O=c1[nH]c(/C(=C/C2CCCC2)c2ccc(S(=O)(=O)C3CC3)cc2)ccc1CO` [Example 1-30, 6-{(E)-2-Cyclopentyl-1-[4-(cyclopropylsulfonyl)phenyl]ethenyl}-3-(hydroxymethyl)pyridin-2(1H)-one] had an EC50 of 10 to 500 nM.

Compound `CCN1CC(Sc2ccc(/C(=C\C3CCCC3)c3ccc(C)c(=O)[nH]3)cc2)C1` [Example 1-31, 6-[(E)-2-Cyclopentyl-1-{4-[(1-ethylazetidin-3-yl)sulfanyl]phenyl}ethenyl]-3-methylpyridin-2(1H)-one] yielded an EC50 of 500 to 3000 nM.

Compound `CCN1CC(S(=O)(=O)c2ccc(/C(=C\C3CCCC3)c3ccc(C)c(=O)[nH]3)cc2)C1` [Example 1-32, 6-[(E)-2-Cyclopentyl-1-{4-[(1-ethylazetidin-3-yl)sulfonyl]phenyl}ethenyl]-3-methylpyridin-2(1H)-one] came in with an EC50 of 500 to 3000 nM.

`COC(=O)c1ccc(/C(=C\C2CCCC2)c2ccc(C)c(=O)[nH]2)cc1` [Example 1-33, Methyl 4-[(E)-2-cyclopentyl-1-(5-methyl-6-oxo-1,6-dihydropyridin-2-yl)ethenyl]benzoate]: the EC50 was 500 to 3000 nM.

`CSc1ccc(/C(=C\C2CCCC2)c2ccc(C)c(=O)[nH]2)cn1` [Example 1-34, 6-{(E)-2-Cyclopentyl-1-[6-(methylsulfanyl)pyridin-3-yl]ethenyl}-3-methylpyridin-2(1H)-one]: the EC50 is 500 to 3000 nM.

With `Cc1ccc(/C(=C/C2CCCC2)c2ccc(S(C)(=O)=O)nc2)[nH]c1=O` [Example 1-35, 6-{(E)-2-Cyclopentyl-1-[6-(methylsulfonyl)pyridin-3-yl]ethenyl}-3-methylpyridin-2(1H)-one], the EC50 is 500 to 3000 nM.

For `Cc1ccc(/C(=C/CC2CCCC2)c2ccc(SC3CC3)cc2)[nH]c1=O` [Example 1-36, 6-{(1E)-3-Cyclopentyl-1-[4-(cyclopropylsulfanyl)phenyl]prop-1-en-1-yl}-3-methylpyridin-2(1H)-one], the EC50 was in the range of 10 to 500 nM.

Turning to `Cc1ccc(/C(=C/CC2CCCC2)c2ccc(S(=O)(=O)C3CC3)cc2)[nH]c1=O` [Example 1-37, 6-{(1E)-3-Cyclopentyl-1-[4-(cyclopropylsulfonyl)phenyl]prop-1-en-1-yl}-3-methylpyridin-2(1H)-one], the EC50 fell in the range of 10 to 500 nM.

Compound `O=c1[nH]c(/C(=C/C2CCCC2)c2ccc(CCCCO)cc2)ccc1C(F)(F)F` [Example 1-38, 6-{(E)-2-Cyclopentyl-1-[4-(4-hydroxybutyl)phenyl]ethenyl}-3-(trifluoromethyl)pyridin-2(1H)-one] showed an EC50 of 500 to 3000 nM.

Take `CCN(CC)CCCCc1ccc(/C(=C\C2CCCC2)c2ccc(C(F)(F)F)c(=O)[nH]2)cc1` [Example 1-39, 6-[(E)-2-Cyclopentyl-1-{4-[4-(diethylamino)butyl]phenyl}ethenyl]-3-(trifluoromethyl)pyridin-2(1H)-one]: the EC50 lay within 500 to 3000 nM.

`O=c1[nH]c(/C(=C/C2CCCC2)c2ccc(S(=O)(=O)CCCO)cc2)ccc1C(F)(F)F` [Example 1-40, 6-[(E)-2-Cyclopentyl-1-{4-[(3-hydroxypropyl)sulfonyl]phenyl}ethenyl]-3-(trifluoromethyl)pyridin-2(1H)-one] yielded an EC50 of 500 to 3000 nM.

`CCN(CC)CCCS(=O)(=O)c1ccc(/C(=C\C2CCCC2)c2ccc(C(F)(F)F)c(=O)[nH]2)cc1` [Example 1-41, 6-[(E)-2-Cyclopentyl-1-(4-{[3-(diethylamino)propyl]sulfonyl}phenyl)ethenyl]-3-(trifluoromethyl)pyridin-2(1H)-one]: the EC50 was in the range of 500 to 3000 nM.

In turn, `CCN(CC)CCCC(=O)c1ccc(/C(=C\C2CCCC2)c2ccc(C(F)(F)F)c(=O)[nH]2)cc1` [Example 1-42, 6-[(E)-2-Cyclopentyl-1-{4-[4-(diethylamino)butanoyl]phenyl}ethenyl]-3-(trifluoromethyl)pyridin-2(1H)-one] gave an EC50 of 500 to 3000 nM.

For the compound `CCN(CC)CCCNc1ccc(/C(=C\C2CCCC2)c2ccc(C(F)(F)F)c(=O)[nH]2)cc1` [Example 1-43, 6-[(E)-2-Cyclopentyl-1-(4-{[3-(diethylamino)propyl]amino}phenyl)ethenyl]-3-(trifluoromethyl)pyridin-2(1H)-one], the EC50 lay in the range of 3000 to 10000 nM.

For `CCNCCCOc1ccc(/C(=C\C2CCCC2)c2ccc(C3CC3)c(=O)[nH]2)cc1Cl` [Example 1-44, 6-[(E)-1-{3-Chloro-4-[3-(ethylamino)propoxy]phenyl}-2-cyclopentylethenyl]-3-cyclopropylpyridin-2(1H)-one], the EC50 was in the range of 500 to 3000 nM.

With `CCN(CC)CCNC(=O)c1ccc(/C(=C\C2CCCC2)c2ccc(C3CC3)c(=O)[nH]2)cc1` [Example 1-45, 4-[(E)-2-Cyclopentyl-1-(5-cyclopropyl-6-oxo-1,6-dihydropyridin-2-yl)ethenyl]-N-[2-(diethylamino)ethyl]benzamide], the EC50 is 500 to 3000 nM.

For the compound `CN1CCN(S(=O)(=O)c2ccc(/C(=C\C3CCCC3)c3ccc(Cl)c(=O)[nH]3)cc2)CC1` [Example 1-46, 3-Chloro-6-[(E)-2-cyclopentyl-1-{4-[(4-methylpiperazin-1-yl)sulfonyl]phenyl}ethenyl]pyridin-2(1H)-one], the EC50 fell in the range of 500 to 3000 nM.

`CSc1ccc(/C(=C\C2CCOC2)c2ccc(C3CC3)c(=O)[nH]2)cc1` (stereo not shown) [Example 1-47, 3-Cyclopropyl-6-[(E)-1-[4-(methylsulfanyl)phenyl]-2-(tetrahydrofuran-3-yl)ethenyl]pyridin-2(1H)-one] had an EC50 of 10 to 500 nM.

`O=c1[nH]c(/C(=C/C2CCOC2)c2ccc(SC3CC3)cc2)ccc1C(F)(F)F` (stereo not shown) [Example 1-48, 6-{(E)-1-[4-(Cyclopropylsulfanyl)phenyl]-2-(tetrahydrofuran-3-yl)ethenyl}-3-(trifluoromethyl)pyridin-2(1H)-one] registered an EC50 of 500 to 3000 nM.

Source of the values: US8822503B2, “2-pyridone compounds” (Taisho Pharmaceutical Co., Ltd, priority 2009, dated 2014).
